# Experimental data as given in patent publication US12083109B2, “Neurokinin antagonists and uses thereof” (California Institute of Technology, priority 2017, dated 2024).
# “Also recorded” adds a separate entry of the source.
# Tests used:
# [1] = Spooren et al., 2005; cited from earlier work
# Nk3R = target: T1, Nk3R (Mus musculus, UniProt P47937); test: SIS mice: overall behavioral effects and return to group housing, osanetant; assay type: in vivo; parameters: from tissue; host or cells: Living mice (wild-type C57Bl6/N males, Charles River); conditions: for fighting/aggression on return of SIS mice to housing with cagemates: osanetant during or during or following SIS
# T1 sequence (P47937 1-452): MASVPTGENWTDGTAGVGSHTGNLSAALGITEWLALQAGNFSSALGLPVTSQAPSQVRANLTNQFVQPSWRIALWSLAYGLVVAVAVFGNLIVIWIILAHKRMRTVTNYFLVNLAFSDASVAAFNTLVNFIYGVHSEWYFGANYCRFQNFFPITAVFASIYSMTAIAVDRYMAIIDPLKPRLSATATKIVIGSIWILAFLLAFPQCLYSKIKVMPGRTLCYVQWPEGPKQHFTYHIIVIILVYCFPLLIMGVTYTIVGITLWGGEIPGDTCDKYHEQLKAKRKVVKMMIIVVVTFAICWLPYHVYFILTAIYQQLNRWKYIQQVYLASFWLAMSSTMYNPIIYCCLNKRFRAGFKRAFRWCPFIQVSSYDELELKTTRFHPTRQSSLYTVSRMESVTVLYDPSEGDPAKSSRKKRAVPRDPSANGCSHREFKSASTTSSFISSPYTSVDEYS
# Text: WT males (Charles River) were housed in isolation (1 animal per cage), or in groups of 3. Tac2-Cre males (bred in-house) were housed in isolation, or in groups of 2-5. Animals were isolated post-weaning, at 8-16 weeks of age. All cage conditions remained otherwise identical for group-housed mice compared to isolated animals, and mice were housed on the same rack in the same vivarium. Except as otherwise indicated, social isolation was maintained for at least 2 weeks (this period was extended in the case of surgical experiments, i.e. when adequate time for recovery and viral expression levels were required). All mice were between 12-20 weeks of age at the time of behavioral testing. We asked whether Tac2 signaling is required during the period of social isolation to observe the changes in behavior. Mice were administered osanetant daily in their home cage during the two-week social isolation period, but were then tested off-drug. To control for carry-over of the drug from the final homecage administration into the testing period (24 hrs later), an additional group of mice was subjected to two weeks of SIS without drug, and given a single home-cage administration of osanetant 24 hours prior to testing (FIG. 3G).
# [2] = target: T2, hM4DREADD in Tac2+ neurons (Homo sapiens, UniProt P08173, A203G/Y113C); test: Looming disk assay, CNO silencing of Tac2+ neurons (hM4DREADD); assay type: in vivo, mouse; conditions: SIS Tac2-Cre mice, CNO 5 mg/kg i.p.
# T2 construct: host or cells: Tac2+ neurons of Tac2-Cre mice (dBNSTa, DMH or CeA), transduced in vivo with AAV2-EF1a-DIO-hM4D-mCherry
# T2 sequence (P08173 1-479 Y113C/A203G): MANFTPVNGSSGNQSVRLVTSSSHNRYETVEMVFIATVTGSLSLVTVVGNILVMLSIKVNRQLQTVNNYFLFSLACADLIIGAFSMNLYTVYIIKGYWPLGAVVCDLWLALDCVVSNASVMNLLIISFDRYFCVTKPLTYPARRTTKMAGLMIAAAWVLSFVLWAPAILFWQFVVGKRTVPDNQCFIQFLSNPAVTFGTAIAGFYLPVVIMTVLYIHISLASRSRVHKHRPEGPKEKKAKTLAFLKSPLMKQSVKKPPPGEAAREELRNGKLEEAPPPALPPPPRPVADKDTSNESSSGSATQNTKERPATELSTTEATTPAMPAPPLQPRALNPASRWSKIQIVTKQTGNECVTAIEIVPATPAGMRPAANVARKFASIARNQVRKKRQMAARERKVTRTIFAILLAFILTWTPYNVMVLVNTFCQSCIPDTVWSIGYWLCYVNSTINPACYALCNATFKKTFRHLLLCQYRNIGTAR
# Protocol: Freezing behavior to presentation of an overhead looming disk proceeded as previously described (Kunwar et al., 2015; Yilmaz and Meister, 2013; incorporated by reference in their entirety). Briefly, mice were transported to a novel behavioral testing room. After 5 minutes of acclimation, mice were placed inside a novel, custom-built open top Plexiglas arena (48×48×30 cm) covered with a flat screen monitor placed directly above and with illumination provided by infrared LEDs (Marubeni). Mice were given a 5 minute baseline period in the arena, after which entry into the center of the arena triggered presentation of a single, 10 second overhead looming disk stimulus (comprised of a single looming disk presentation 0.5 seconds in duration, which was repeated 10 times with an inter-stimulus interval of 0.5 seconds). The stimulus was controlled by custom MATLAB code (M. Meister, Caltech) run on a dedicated computer in an adjacent room. Mice remained in the area for an additional 2 minutes before being transported back. Behavior was recorded using a video recorder attached to a laptop equipped with video capture software (Corel VideoStudio Pro). Acute freezing behavior to the looming disk (“during”) as well as in the 30 seconds following the last disk (“post”) were scored manually (Behavior Annotator, MATLAB) by an observer blind to environmental conditions. […]
behavioral effects of 2 weeks of social isolation stress (overall) (Nk3R; mice),fighting/aggression on return of SIS mice to housing with cagemates (Nk3R),fighting/aggression on return of SIS mice to housing with cagemates (Nk3R; listed as Osanetant),SMILES,blood-brain barrier passage [1],acute (during) freezing to looming disk ([2]; hM4DREADD in CeA),persistent (post) freezing to looming disk ([2]; hM4DREADD in dBNSTa)
protects and prevents,without any subsequent fighting observed,prevents aggression,"CC(=O)N(C)C1(c2ccccc2)CCN(CCC[C@]2(c3ccc(Cl)c(Cl)c3)CCCN(C(=O)c3ccccc3)C2)CC1 [osanetant, N-(1-{3-[(3R)-1-benzoyl-3-(3,4-dichlorophenyl)piperidin-3-yl]propyl}-4-phenylpiperidin-4-yl)-N-methylacetamide]",crosses the blood-brain barrier,–,–
–,–,–,"C[N+]1([O-])CCN(C2=Nc3cc(Cl)ccc3Nc3ccccc32)CC1 [CNO, clozapine-N-oxide]",–,blocked; also recorded: suppressed,blocked; also recorded: selectively attenuated
